Assay: mn = molality of the nth substance listed, in mol/kg
Conditions: 101 kPa, Liquid; for viscosity: Rotational; for mass density: Vibrating tube method

CNCCC=C1c2ccccc2CCc2ccccc21.Cl + O
Conditions	mass density [kg/m3]	viscosity [mPa·s]
293.15 K, m1 = 0.0075	998.486	1.035
293.15 K, m1 = 0.01	998.545	1.035
293.15 K, m1 = 0.0125	998.599	1.036
293.15 K, m1 = 0.0152	998.645	1.036
293.15 K, m1 = 0.0175	998.668	1.037
293.15 K, m1 = 0.02	998.705	1.037
293.15 K, m1 = 0.025	998.721	1.038
298.15 K, m1 = 0.0076	997.322	0.9368
298.15 K, m1 = 0.01	997.382	0.937
298.15 K, m1 = 0.0125	997.428	0.9374
298.15 K, m1 = 0.0152	997.469	0.9376
298.15 K, m1 = 0.0175	997.499	0.9379
298.15 K, m1 = 0.02	997.521	0.9382
298.15 K, m1 = 0.025	997.545	0.9388
303.15 K, m1 = 0.0076	995.904	0.8338
303.15 K, m1 = 0.01	995.959	0.8339
303.15 K, m1 = 0.0125	996.001	0.8342
303.15 K, m1 = 0.0152	996.045	0.8345
303.15 K, m1 = 0.0175	996.065	0.8348
303.15 K, m1 = 0.02	996.085	0.8349
303.15 K, m1 = 0.025	996.105	0.8356
308.15 K, m1 = 0.0076	994.285	0.7279
308.15 K, m1 = 0.01	994.335	0.7281
308.15 K, m1 = 0.0125	994.379	0.7283
308.15 K, m1 = 0.0152	994.409	0.7285
308.15 K, m1 = 0.0175	994.435	0.7286
308.15 K, m1 = 0.02	994.455	0.7289
308.15 K, m1 = 0.025	994.465	0.7293
310.15 K, m1 = 0.0076	993.565	0.6925
310.15 K, m1 = 0.01	993.621	0.6928
310.15 K, m1 = 0.0125	993.659	0.6929
310.15 K, m1 = 0.0152	993.689	0.6931
310.15 K, m1 = 0.0175	993.712	0.6932
310.15 K, m1 = 0.02	993.73	0.6935
310.15 K, m1 = 0.025	993.741	0.6938
313.15 K, m1 = 0.0076	992.443	0.6556
313.15 K, m1 = 0.01	992.499	0.6557
313.15 K, m1 = 0.0125	992.539	0.6558
313.15 K, m1 = 0.0152	992.571	0.656
313.15 K, m1 = 0.0175	992.592	0.6562
313.15 K, m1 = 0.02	992.601	0.6564
313.15 K, m1 = 0.025	992.609	0.6568

Reference: the NIST ThermoML archive (doi:10.1021/je8008864)
